In one series the target is Aβ1-42 (Homo sapiens, UniProt P05067). The series is described as follows: TEM of Aβ1-42 self-aggregation. The following applies: 4h 100 μM, Aβ1-42 5 μM, 48 h.
A further series has as its system mice. Description: LD50 determination in mice (Bliss method). The class given is in vivo, C57BL mice. The conditions noted are these: intragastric 7 days. As to the method: (§1) Male C57BL mice (18–23 g; 8 weeks old) were purchased from the Experimental Center of Anhui University of Traditional Chinese Medicine. Mice were reared in a temperature and humidity controlled environment with free access to food and water, with self-adaptive rearing for 4 days.
(§2) Thirty mice were randomly divided into five groups, and the death of each group was counted after 7 days of intragastric administration (100, 80, 64, 51.2, 40.96 mg/kg). The Bliss method was used to calculate the LD50 and 95% confidence limit.

Series [1] is described as follows: LD50 determination in mice (Bliss method). The format is in vivo, C57BL mice. The conditions noted are these: male, C57BL, mouse, in vivo, po, intragastric administration 7 days, Bliss method, read-out: LD50 (95% confidence limit). The method, then:
as §1, §2

In another series the test system is BV2 cells. Description: LPS-induced ROS production in BV2 cells. The format is cell-based. The conditions noted are these: 4h 7.5, 15, 30 μM. The method, then:
Intracellular ROS levels was detected by the ROS assay kit (Biyuntian Biotechnology, Hang Zhou, China). […] The control group involved culturing the BV2 microglia cells in normal culture media without any treatment. Then, the cells were washed with PBS (pH 7.2) and incubated with DCFH-DA at 37 °C for 20 min. Finally, cells were washed with DMEM and the fluorescence intensity was observed under confocal laser scanning microscope.

A further series concerns the target T1, AChE (Electrophorus electricus, UniProt O42275).
T1 construct: AChE (from electric eel); purchased Sigma Chemical Company (St. Louis, MO, USA)
Description: Kinetic study of AChE inhibition (Lineweaver–Burk). The class given is biochemical. As to the method:
The specific steps are similar to those described in Section 4.3 for the enzyme inhibition assay. In brief, 100 μL of different concentrations of 4h (0, 0.075, 0.15, and 0.3 μM)/4h (0, 3, 6, and 12 μM) and 100 μL of different concentrations of AChE/BuChE (1, 0.5, 0.25, 0.125, and 0.0625 U/mL) were added into 48-well plates and then co-incubated at 37 °C for 30 min. After the end of incubation, 100 μL of ATCI/BTCI (0.35 mM), 100 μL of PB solution, and 100 μL DTNB (0.35 mM) were added, and then changes in absorbance were measured at different times at 412 nm by multifunctional microplate reader, and the catalytic reaction rate of AChE/BuChE was determined. All concentrations are final. With the enzyme reaction rate V as the ordinate and AChE/BuChE concentration as the abscissa, the curve was drawn to determine the reversibility of the compound to AChE/BuChE.
In order to determination of inhibition types and the constant of AChE/BuChE, the concentration of AChE/BuChE (0.5 U/mL) in the reaction system was fixed. Five different substrate concentrations and four different concentrations of test compound 4h were used to measure the absorbance changes at different times at 412 nm. The reciprocal of the enzymatic reaction rate (1/V) was taken as the ordinate, and the reciprocal of the substrate ATCI/BTCI concentration (1/S) was taken as the abscissa.
[…]. […]

In the next series the test system is NO in BV2 cells. Description: NO production in LPS-stimulated BV2 cells (Griess). The class given is cell-based. The following applies: Mus musculus, BV-2, 24 h, read-out: NO inhibition IC50. As to the method: The cytotoxicity of compounds on BV2 cells were evaluated by MTT assay and similar to those described in Section 2.5. The NO concentrations in medium were determined using Griess Reagent assay (Beyotime) in accordance with a previously reported method. Nitrite is reduced to nitrogen oxide using Griess Reagent I. Nitrogen oxide then reacts with Griess Reagent II forming a stable product that can be detected by its absorbance at […]. The two-step assay is simple, fast, and can detect nitrite levels as low as 1 nmol/well. BV2 cells were seeded into a 48-well plate at a density of 6.0 × 10^4 cells per well. After the cells were incubated overnight, the old medium was discarded. Then, the cells were pretreated with various concentrations (10, 5, 1, 0.5, and 0.1 μM) of compounds for 1 h and then co-incubated with LPS (1 μg/mL, 30 μL/well) for 24 h. After 24 h, the cell supernatant (50 μL/well) was placed into a new 96-well plate for experiment. […] The absorbance at […] was measured by a microplate reader.
In general terms: The Griess reaction detects nitrite, a stable product of nitric oxide.

A further series has as its system SY5Y cells. Description: Cytotoxicity in SY5Y cells (MTT). The class given is cell-based.
In a further series the test system is MDCKII-MDR1 cells. The series is described as follows: in vitro. The format is in vitro ADME. The following applies: efflux ratio. As to the method: (§3) Specifically, MDCKII-MDR1 cells (1 × 10^5 cell/cm^2) were seeded on polyester 12-well Transwell inserts (pore size: […], diameter: 12 mm, apical volume: 0.5 mL, basolateral: volume 1.5 mL) and cultured for 5–7 days to reach full differentiation as per TEER readings > 250 Ω·cm. […] After an incubation time of 2 h, samples were removed from the apical and basolateral side of the monolayer and were stored at −80 °C until further analysis.
(§4) The Papp was calculated according to the following equation (units of cm/s):(1) Papp=Va/area×time×Drugacceptor/Druginitial where “Va” is the volume in the acceptor well, “time” is the total transport time, “area” is the surface area of the membrane, “[Drug]initial” is the initial drug concentration in the AP or BL chamber, and “[Drug]acceptor” is the concentration of the drug in the acceptor chamber.
(§5) The ER was calculated using the following equation:ER = Papp, BL-AP/Papp, AP-BL(2) where “Papp, BL-AP” is the apparent permeability of basal-to-apical transport, and “Papp, AP-BL” is the apparent permeability of apical-to-basal transport.

For another series, the system named is P-gp (MDR1). The series is described as follows: in vitro. The format is in vitro ADME. The following applies: dog, MDCK-MDR1, MDCKII-MDR1. As to the method: as §3, §4, §5

T1 sequence (O42275 24-633): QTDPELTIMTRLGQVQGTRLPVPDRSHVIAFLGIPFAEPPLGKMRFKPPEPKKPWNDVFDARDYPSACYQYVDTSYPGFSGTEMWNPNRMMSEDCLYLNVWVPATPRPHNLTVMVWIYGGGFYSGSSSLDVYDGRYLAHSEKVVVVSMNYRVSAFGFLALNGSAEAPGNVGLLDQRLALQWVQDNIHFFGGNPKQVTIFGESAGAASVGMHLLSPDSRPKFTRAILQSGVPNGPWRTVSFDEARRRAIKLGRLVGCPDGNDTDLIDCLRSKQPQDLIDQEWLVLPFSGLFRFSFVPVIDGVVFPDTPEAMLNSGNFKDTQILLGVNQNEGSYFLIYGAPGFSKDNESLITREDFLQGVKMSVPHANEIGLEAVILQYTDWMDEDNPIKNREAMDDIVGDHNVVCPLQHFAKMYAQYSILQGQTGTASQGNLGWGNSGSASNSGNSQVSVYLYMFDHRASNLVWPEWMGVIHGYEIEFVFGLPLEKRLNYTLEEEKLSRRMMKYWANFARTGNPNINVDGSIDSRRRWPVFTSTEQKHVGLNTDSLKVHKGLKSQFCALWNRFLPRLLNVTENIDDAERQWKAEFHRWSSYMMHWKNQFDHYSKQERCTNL
Sequence of Aβ1-42 (P05067 672-713 limits assumed): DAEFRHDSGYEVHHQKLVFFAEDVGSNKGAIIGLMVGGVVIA
Description for Aβ1-42: Transmission Electron Microscope (TEM) studies were performed as previously described. […] After 2 days, a copper mesh was used to adsorb the samples, then stained with phosphotungstic acid, and the Aβ1-42 self-aggregation by TEM was observed (Talos L1200C, Thermo Fisher Scientific, Waltham, MA, USA).

The LD50 is the dose at which mortality reaches 50%. By Ki is commonly meant the dissociation constant of the complex between target and ligand, obtained from inhibition or displacement. By IC50 is commonly meant the concentration needed to halve the response being measured. The term Papp A→B denotes how fast a substance crosses the layer from the apical side. High values mean fast passage, low ones slow passage. By Papp B→A is commonly meant the apparent permeability from the basolateral to the apical side of a cell layer. For the compound `O=C1c2cc(NS(=O)(=O)c3ccccc3F)ccc2-n2c1nc1ccccc1c2=O` [4h], at Aβ1-42, the “Morphology of Aβ1-42 aggregates (TEM)” value was “aggregation of Aβ1-42 samples was remarkably reduced”. Further, the “Mortality rate (%)” value in the series with mice (40.96 mg/kg) stood at 0%; with mice (51.2 mg/kg), 0%; with mice (64 mg/kg) it was 16.7%; in the series with mice (80 mg/kg) it was 50%; in the series with mice (100 mg/kg), 66.7%. The Number of deaths in the series with mice (40.96 mg/kg) came to 0; in the series with mice (51.2 mg/kg), 0; in the series with mice (64 mg/kg), 1; in the series on mice (80 mg/kg) it was 3; in the series with mice (100 mg/kg) it was 4. In addition, in series [1], the LD50 at 7 days was 84.8 mg/kg. For the same compound, in the series with BV2 cells, the “Intracellular ROS levels in BV2 cells” value is listed as “significantly reduced intracellular ROS levels”. Further, on AChE (Lineweaver–Burk double-reciprocal plot), the AChE inhibition type result is reported as “mixed-type inhibition”. At AChE (Lineweaver–Burk secondary plot), this compound had a Ki of 83.1 nM. Also, in the series with NO in BV2 cells, the IC50 turned out to be 620 ± 70 nM. Further, the “Cell Viability (% of Control)” value in the series on SY5Y cells (30 μM) is listed as 97.84 ± 1.24 % of control; in the series on SY5Y cells (50 μM) it was 91.33 ± 1.48 % of control. Moreover, in the series with MDCKII-MDR1 cells, the “ER Papp BL/Papp AP” value is given as “less than two”. This compound showed a Papp A→B at 2 h, 75 μM in the series with P-gp (MDR1) (apical-to-basal, 2 h) of 18.1 ± 2.7 ×10⁻⁶ cm/s. Moreover, the Papp B→A at 2 h, 75 μM in the series with P-gp (MDR1) (basal-to-apical, 2 h) was 17.4 ± 2.2 ×10⁻⁶ cm/s. The efflux ratio at 2 h, 75 μM with P-gp (MDR1) (efflux ratio, read-out: ER Papp BL/Papp AP) worked out at 0.96.

Source of the values: PMC10610214 (Pharmaceuticals, 2023).
